Measurements reported in ChEMBL document CHEMBL1909046, “DrugMatrix in vitro pharmacology data”.

Legend:
[1] = target: 5-hydroxytryptamine receptor 1B (Rattus norvegicus, UniProt P28564); type: cell membranes, Wistar, Cerebral cortex, Membrane; note: in other assays of this panel Not Active means under 50% inhibition at 10 µM
[2] = DRUGMATRIX: Interleukin IL-1 radioligand binding (ligand: [125I] interleukin 1beta); type: cell membranes, Membrane; settings: nih3t3; Not Active = under 50% inhibition at 10 µM
Mu-type opioid receptor = Mu-type opioid receptor (Homo sapiens, UniProt P35372); experiment: DRUGMATRIX: Opiate mu (OP3, MOP) radioligand binding (ligand: [3H] Diprenorphine); type: cell membranes, CHO-K1, Membrane; settings: cho-k1; Not Active = under 50% inhibition at 10 µM
Mu-type opioid receptor, sequence (P35372 whole entry): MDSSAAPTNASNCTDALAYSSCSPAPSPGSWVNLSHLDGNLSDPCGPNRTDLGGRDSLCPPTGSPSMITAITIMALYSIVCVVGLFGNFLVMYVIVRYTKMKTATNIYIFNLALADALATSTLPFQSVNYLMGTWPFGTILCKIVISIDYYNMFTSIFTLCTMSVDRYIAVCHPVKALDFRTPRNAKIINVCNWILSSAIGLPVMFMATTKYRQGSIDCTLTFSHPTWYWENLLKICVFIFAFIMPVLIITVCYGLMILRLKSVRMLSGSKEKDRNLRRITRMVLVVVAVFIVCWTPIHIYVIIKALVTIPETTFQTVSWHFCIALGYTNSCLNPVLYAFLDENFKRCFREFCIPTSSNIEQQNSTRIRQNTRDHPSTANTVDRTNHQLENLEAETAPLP

[3] = DRUGMATRIX: Glutamate, Kainate radioligand binding (ligand: [3H] Kainic acid); type: cell membranes, Rattus norvegicus, Wistar, Brain, Membrane; settings: Not Active = under 50% inhibition at 10 µM
[4] = target: T1, Angiotensin-converting enzyme (Oryctolagus cuniculus, UniProt P12822); experiment: biochemical; type: tissue-based, Lung;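 note: enzymatic inhibition of angiotensin-converting enzyme measured with FAPGG as the substrate; in other assays of this panel Not Active means under 50% inhibition at 10 µM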
T1 sequence (P12822 whole entry): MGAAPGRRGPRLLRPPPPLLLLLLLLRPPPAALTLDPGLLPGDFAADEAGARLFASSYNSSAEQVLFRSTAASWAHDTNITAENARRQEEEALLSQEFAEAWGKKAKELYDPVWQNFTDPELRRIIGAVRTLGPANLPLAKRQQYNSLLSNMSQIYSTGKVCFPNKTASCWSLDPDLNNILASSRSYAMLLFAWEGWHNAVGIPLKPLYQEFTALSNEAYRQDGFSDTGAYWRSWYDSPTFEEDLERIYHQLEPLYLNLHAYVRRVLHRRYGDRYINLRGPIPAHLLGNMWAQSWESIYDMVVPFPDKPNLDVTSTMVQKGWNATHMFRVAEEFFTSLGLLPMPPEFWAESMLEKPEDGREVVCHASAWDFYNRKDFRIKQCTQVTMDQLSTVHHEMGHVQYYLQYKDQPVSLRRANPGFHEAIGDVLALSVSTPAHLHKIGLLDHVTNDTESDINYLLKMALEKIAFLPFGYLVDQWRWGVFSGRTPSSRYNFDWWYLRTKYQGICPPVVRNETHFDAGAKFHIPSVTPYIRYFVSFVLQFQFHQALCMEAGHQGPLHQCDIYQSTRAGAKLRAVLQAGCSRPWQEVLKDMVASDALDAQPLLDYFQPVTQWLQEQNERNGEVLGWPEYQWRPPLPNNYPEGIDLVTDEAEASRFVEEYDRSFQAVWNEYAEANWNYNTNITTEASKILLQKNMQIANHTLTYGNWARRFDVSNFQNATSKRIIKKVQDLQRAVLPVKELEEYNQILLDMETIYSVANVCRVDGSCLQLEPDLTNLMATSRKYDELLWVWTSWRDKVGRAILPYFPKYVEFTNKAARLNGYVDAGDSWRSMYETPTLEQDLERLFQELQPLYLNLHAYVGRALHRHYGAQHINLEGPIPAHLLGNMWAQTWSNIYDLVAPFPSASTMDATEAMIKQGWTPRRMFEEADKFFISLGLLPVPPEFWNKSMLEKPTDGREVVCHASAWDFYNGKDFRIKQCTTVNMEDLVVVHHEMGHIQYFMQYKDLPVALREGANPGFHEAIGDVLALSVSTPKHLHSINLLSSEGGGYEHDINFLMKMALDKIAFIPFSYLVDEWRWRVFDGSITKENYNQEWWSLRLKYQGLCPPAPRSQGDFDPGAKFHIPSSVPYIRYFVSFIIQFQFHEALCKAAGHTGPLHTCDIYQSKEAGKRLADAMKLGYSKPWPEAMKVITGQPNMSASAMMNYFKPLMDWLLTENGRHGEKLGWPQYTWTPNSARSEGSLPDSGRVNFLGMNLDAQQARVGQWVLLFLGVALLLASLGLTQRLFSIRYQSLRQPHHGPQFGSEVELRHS

[5] = target: Sigma non-opioid intracellular receptor 1 (Homo sapiens, UniProt Q99720); experiment: DRUGMATRIX: Sigma1 radioligand binding (ligand: [3H] Haloperidol); type: cell membranes, Jurkat, Membrane; settings: jurkat; Not Active = under 50% inhibition at 10 µM
Sigma non-opioid intracellular receptor 1, sequence (Q99720 whole entry): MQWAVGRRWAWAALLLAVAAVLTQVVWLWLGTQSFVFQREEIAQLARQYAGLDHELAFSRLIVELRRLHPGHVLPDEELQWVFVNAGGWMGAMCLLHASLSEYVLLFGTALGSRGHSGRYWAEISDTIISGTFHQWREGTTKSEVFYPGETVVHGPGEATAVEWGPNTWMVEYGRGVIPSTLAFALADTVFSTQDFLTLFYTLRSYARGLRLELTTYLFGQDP

[6] = target: C-C chemokine receptor type 5 (Homo sapiens, UniProt P51681); type: cell membranes, HEK293, Membrane; settings: hek293; note: in other assays of this panel Not Active means under 50% inhibition at 10 µM
C-C chemokine receptor type 5, sequence (P51681 whole entry): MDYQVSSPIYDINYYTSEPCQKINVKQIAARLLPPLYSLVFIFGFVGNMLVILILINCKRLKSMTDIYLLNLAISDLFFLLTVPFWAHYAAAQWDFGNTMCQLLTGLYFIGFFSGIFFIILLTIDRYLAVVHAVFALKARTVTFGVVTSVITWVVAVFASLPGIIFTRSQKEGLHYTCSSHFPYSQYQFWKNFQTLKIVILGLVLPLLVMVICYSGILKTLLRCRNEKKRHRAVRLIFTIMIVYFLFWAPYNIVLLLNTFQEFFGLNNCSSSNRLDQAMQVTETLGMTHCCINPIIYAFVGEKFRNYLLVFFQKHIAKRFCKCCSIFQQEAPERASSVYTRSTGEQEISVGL

5-hydroxytryptamine receptor 1B, sequence (P28564 whole entry): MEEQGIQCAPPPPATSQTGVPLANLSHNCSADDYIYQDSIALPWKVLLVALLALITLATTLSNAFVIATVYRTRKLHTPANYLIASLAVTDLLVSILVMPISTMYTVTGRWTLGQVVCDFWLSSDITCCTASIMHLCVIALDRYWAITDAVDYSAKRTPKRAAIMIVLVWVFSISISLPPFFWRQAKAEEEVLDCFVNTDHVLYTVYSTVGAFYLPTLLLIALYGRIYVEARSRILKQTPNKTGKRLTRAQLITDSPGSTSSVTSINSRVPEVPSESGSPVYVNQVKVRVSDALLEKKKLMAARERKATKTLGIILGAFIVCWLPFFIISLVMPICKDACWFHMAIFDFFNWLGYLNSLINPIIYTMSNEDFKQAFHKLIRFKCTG

O=c1[nH]cnc2c1ncn2[C@H]1CC[C@@H](CO)O1 [DIDANOSINE]
Not Active: IC50 [1] | IC50 [2] | Ki [2] | IC50 (Mu-type opioid receptor) | IC50 [3] | Ki [3] | IC50 [4] | IC50 [5] | IC50 [6]

CCN1CCN(c2cc3c(cc2F)c(=O)c(C(=O)O)cn3C2CC2)CC1 [ENROFLOXACIN]
Not Active: IC50 [1] | IC50 [2] | Ki [2] | IC50 (Mu-type opioid receptor) | IC50 [3] | Ki [3] | IC50 [4] | IC50 [5] | IC50 [6]

CNC[C@H](O)c1ccc(O)c(O)c1 [EPINEPHRINE]
Not Active: IC50 [1] | IC50 [2] | Ki [2] | IC50 (Mu-type opioid receptor) | IC50 [3] | Ki [3] | IC50 [4] | IC50 [5] | IC50 [6]

CC[C@H]1OC(=O)[C@H](C)[C@@H](O[C@H]2C[C@@](C)(OC)[C@@H](O)[C@H](C)O2)[C@H](C)[C@@H](O[C@@H]2O[C@H](C)C[C@H](N(C)C)[C@H]2O)[C@](C)(O)C[C@@H](C)C(=O)[C@H](C)[C@@H](O)[C@]1(C)O [ERYTHROMYCIN]
Not Active: IC50 [1] | IC50 [2] | Ki [2] | IC50 (Mu-type opioid receptor) | IC50 [3] | Ki [3] | IC50 [4] | IC50 [5] | IC50 [6]

CC12CCC(CC1)C(C)(C)O2 [EUCALYPTOL]
Not Active: IC50 [1] | IC50 [2] | Ki [2] | IC50 (Mu-type opioid receptor) | IC50 [3] | Ki [3] | IC50 [4] | IC50 [5] | IC50 [6]

NC(N)=Nc1nc(CSCCC(N)=NS(N)(=O)=O)cs1 [FAMOTIDINE]
Not Active: IC50 [1] | IC50 [2] | Ki [2] | IC50 (Mu-type opioid receptor) | IC50 [3] | Ki [3] | IC50 [4] | IC50 [5] | IC50 [6]

COC(=O)Nc1nc2ccc(Sc3ccccc3)cc2[nH]1 [FENBENDAZOLE]
Not Active: IC50 [1] | IC50 [2] | Ki [2] | IC50 (Mu-type opioid receptor) | IC50 [3] | Ki [3] | IC50 [4] | IC50 [5] | IC50 [6]

COc1cc(/C=C/C(=O)O)ccc1O [FERULATE]
Not Active: IC50 [1] | IC50 [2] | Ki [2] | IC50 (Mu-type opioid receptor) | IC50 [3] | Ki [3] | IC50 [4] | IC50 [5] | IC50 [6]

Nc1nc(F)nc2c1ncn2[C@@H]1O[C@H](CO)[C@@H](O)[C@@H]1O [FLUDARABINE]
Not Active: IC50 [1] | IC50 [2] | Ki [2] | IC50 (Mu-type opioid receptor) | IC50 [3] | Ki [3] | IC50 [4] | IC50 [5] | IC50 [6]

C[C@H](C(=O)O)c1ccc2oc(-c3ccc(F)cc3)nc2c1 [FLUNOXAPROFEN]
Not Active: IC50 [1] | IC50 [2] | Ki [2] | IC50 (Mu-type opioid receptor) | IC50 [3] | Ki [3] | IC50 [4] | IC50 [5] | IC50 [6]

NS(=O)(=O)c1cc(C(=O)O)c(NCc2ccco2)cc1Cl [FUROSEMIDE]
Not Active: IC50 [1] | IC50 [2] | Ki [2] | IC50 (Mu-type opioid receptor) | IC50 [3] | Ki [3] | IC50 [4] | IC50 [5] | IC50 [6]

COc1ccc(Cl)cc1C(=O)NCCc1ccc(S(=O)(=O)NC(=O)NC2CCCCC2)cc1 [GLYBURIDE]
Not Active: IC50 [1] | IC50 [2] | Ki [2] | IC50 (Mu-type opioid receptor) | IC50 [3] | Ki [3] | IC50 [4] | IC50 [5] | IC50 [6]

O=C(O)CO [GLYCOLIC ACID]
Not Active: IC50 [1] | IC50 [2] | Ki [2] | IC50 (Mu-type opioid receptor) | IC50 [3] | Ki [3] | IC50 [4] | IC50 [5] | IC50 [6]

Clc1cc(Cl)c(OCC#CI)cc1Cl [HALOPROGIN]
Not Active: IC50 [1] | IC50 [2] | Ki [2] | IC50 (Mu-type opioid receptor) | IC50 [3] | Ki [3] | IC50 [4] | IC50 [5] | IC50 [6]

COC(=O)C[C@](O)(CCC(C)(C)O)C(=O)O[C@@H]1C(OC)=C[C@]23CCCN2CCc2cc4c(cc2[C@H]13)OCO4 [HARRINGTONINE]
Not Active: IC50 [1] | IC50 [2] | Ki [2] | IC50 (Mu-type opioid receptor) | IC50 [3] | Ki [3] | IC50 [4] | IC50 [5] | IC50 [6]

CCN(CCO)CCCC(C)Nc1ccnc2cc(Cl)ccc12 (stereo not drawn) [HYDROXYCHLOROQUINE]
Not Active: IC50 [1] | IC50 [2] | Ki [2] | IC50 (Mu-type opioid receptor) | IC50 [3] | Ki [3] | IC50 [4] | IC50 [5] | IC50 [6]

CC(=O)[C@]1(O)Cc2c(O)c3c(c(O)c2[C@@H](O[C@H]2C[C@H](N)[C@H](O)[C@H](C)O2)C1)C(=O)c1ccccc1C3=O [IDARUBICIN]
Not Active: IC50 [1] | IC50 [2] | Ki [2] | IC50 (Mu-type opioid receptor) | IC50 [3] | Ki [3] | IC50 [4] | IC50 [5] | IC50 [6]
